Assay results: patent publication US20240307430A1, “PHARMACEUTICAL COMPOSITION CONTAINING NICOTINAMIDE ADENINE DINUCLEOTIDE (NAD) AND CD38 INHIBITOR AND APPLICATION THEREOF” (HEFEI KNATURE BIO-PHARM CO., LTD., priority 2021, published 2024)

Key:
[1] = system: Doxorubicin-induced cardiotoxicity (DIC) model; assay: Echocardiography of cardiac function (EF, FS) in the DIC model; assay type: in vivo, C57BL/6 male mice
Protocol: (§1) Circulation. 2016; 133:1668-1687”. 8-week-old C57BL/6 male mice were injected with 5 mg/kg of doxorubicin (DOX) or normal saline via the tail vein, and the administration was performed once a week for four consecutive weeks. Four weeks after the last administration, the mice were subjected to echocardiography to detect the cardiac function, and myocardial tissues of the mice were taken to detect the NAD^+ content. Mice were intraperitoneally injected with the same volume of saline as that of the experimental group once a day, and the duration cycle was the same as that of the DIC model. After administration, mice were subjected to echocardiography to detect the cardiac function, and myocardial tissues were taken from mice to detect NAD^+ content. CD38 inhibitor 78c was dissolved with DMSO. Mice were injected intraperitoneally with 10 mg/kg CD38 inhibitor 78c at 3 hours before doxorubicin injection in the DIC model. 78c was administered once a day until the endpoint of the DIC model. At the end of the model, echocardiography was performed on the mice to detect the cardiac function of the mice, and myocardial tissues were taken from the mice to detect NAD^+ content. NAD was dissolved in saline. Mice were injected intraperitoneally with 50 mg/kg NAD at 3 hours before doxorubicin injection in the DIC model. NAD was administered once a day, which lasted until the endpoint of the DIC model. At the end of the model, mice were subjected to echocardiography to detect cardiac function, and myocardial tissues were taken from mice to detect NAD^+ content. CD38 inhibitor 78c was dissolved in DMSO. Mice were injected intraperitoneally with 50 mg/kg NAD and 10 mg/kg CD38 inhibitor 78c at 3 hours before doxorubicin injection in the DIC model. The CD38 inhibitor 78c was administered once a day, which lasted until the endpoint of the DIC model. At the end of the model, mice were subjected to echocardiography to detect cardiac function, and myocardial tissues were taken from mice to detect NAD^+ content.

[2] = system: Doxorubicin-induced cardiotoxicity (DIC) model; assay: NAD+ content of cardiac tissues in the doxorubicin-induced cardiotoxicity (DIC) model; assay type: in vivo, C57BL/6 male mice; details: FIG. 2
Protocol: as §1, with “At the end of the model, mice were subjected to echocardiography to detect cardiac function, and myocardial tissues were taken from mice to detect NAD^+ content. CD38 inhibitor 78c was dissolved in DMSO. Mice were injected intraperitoneally with 50 mg/kg NAD and 10 mg/kg CD38 inhibitor 78c at 3 hours before doxorubicin injection in the DIC model. The CD38 inhibitor 78c was administered once a day, which lasted until the endpoint of the DIC model. At the end of the model, mice were subjected to echocardiography to detect cardiac function, and myocardial tissues were taken from mice to detect NAD^+ content.” left out

CD38 [3] = biological target: T1, CD38 (Homo sapiens, UniProt P28907); details: from the literature, Cell Metabolism 2018; cited from earlier work
T1 sequence (P28907 1-300): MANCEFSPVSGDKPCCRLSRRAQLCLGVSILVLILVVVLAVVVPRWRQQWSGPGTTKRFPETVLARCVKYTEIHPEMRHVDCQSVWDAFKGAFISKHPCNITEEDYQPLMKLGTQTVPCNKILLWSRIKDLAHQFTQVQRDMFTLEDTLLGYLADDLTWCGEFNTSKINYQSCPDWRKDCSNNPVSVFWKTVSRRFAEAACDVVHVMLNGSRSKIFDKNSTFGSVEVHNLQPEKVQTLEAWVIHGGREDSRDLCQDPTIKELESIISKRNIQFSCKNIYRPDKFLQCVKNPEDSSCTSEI

CD38 [4] = assay: CD38 expression in mouse heart tissues after doxorubicin treatment; assay type: in vivo, mice; details: after doxorubicin treatment (5 mg/kg via tail vein, once a week for four weeks); mainly in CD31-positive endothelial cell region; FIG. 1
Protocol: 8-week-old C57BL/6 male mice were injected with 5 mg/kg of doxorubicin (DOX) or normal saline via the tail vein, and the administration was performed once a week for four consecutive weeks. Four weeks after the last administration, the mice were subjected to echocardiography to detect the cardiac function, and myocardial tissues of the mice were taken to detect the NAD^+ content.

In the case of `COCCOC1CCC(Nc2cc(=O)n(C)c3ccc(-c4cncs4)cc23)CC1` (stereo not shown) [compound 78c], the “cardiac function (EF, FS)” value ([1]; DOX-treated mice, i.p. once a day from 3 hours before doxorubicin, NAD 50 mg/kg, 78c 10 mg/kg, FIGS. 3a and 3b) is listed as “improved cardiac function”, the “cardiac NAD+ content” value ([2]; DOX-treated mice, i.p. once a day from 3 hours before doxorubicin, NAD 50 mg/kg, 78c 10 mg/kg) is listed as “modestly increased” and the “inhibitory activity against CD38” value (CD38 [3]) is listed as “has been demonstrated”.

With `COc1cccc2c1C(=O)c1c(O)c3c(c(O)c1C2=O)C[C@@](O)(C(=O)CO)C[C@@H]3O[C@H]1C[C@H](N)[C@H](O)[C@H](C)O1` [doxorubicin] the “ejection fraction (EF) of the mouse heart” value ([1]; doxorubicin 5 mg/kg via tail vein once a week for four weeks, echocardiography, FIG. 3a) was “significantly reduced”, the “fractional shortening (FS) of the mouse heart” value ([1]; doxorubicin 5 mg/kg via tail vein once a week for four weeks, echocardiography, FIG. 3b) was “significantly reduced” and the “NAD+ content of the cardiac tissues” value ([2]; doxorubicin 5 mg/kg via tail vein once a week for four weeks, compared with the control group) was “significant decrease”. For the same compound, the “CD38 expression in mouse heart tissues” value (CD38 [4]) was “significantly increased”.
